One experiment has as its target T1, COT (Homo sapiens, UniProt P41279).
T1 construct: purchased Carna Biosciences, Inc. (Kobe, Japan)
As to the kind of experiment: Cell free kinase inhibition assay. The format is biochemical. Here is the method: […]. Briefly, each test compound was mixed with enzyme, substrate, ATP, and Mg under appropriate buffer conditions for the ELISA or MSA. […] IC50 values (the half maximal inhibitory concentration) were calculated from concentrations versus % inhibition curves.

Another experiment deals with T2, BRK (Homo sapiens, UniProt Q13882).
T2 construct: purchased Carna Biosciences, Inc. (Kobe, Japan)
As to the kind of experiment: Cell free kinase inhibition assay. In kind it is biochemical.

For a further experiment, the target named is T3, PDGFRα(V561D) (Homo sapiens, UniProt P16234, V561D).
T3 construct: purchased Carna Biosciences, Inc. (Kobe, Japan)
As to the kind of experiment: Cell free kinase inhibition assay. The format is biochemical.

A further experiment concerns the target T4, IKKb (Homo sapiens, UniProt O14920).
T4 construct: purchased Carna Biosciences, Inc. (Kobe, Japan)
Nature of the experiment: Cell free kinase inhibition assay. The format is biochemical.

The next experiment has as its system FTC-133 cells. As to the kind of experiment: Antiproliferation assay (WST-8). To be noted: Homo sapiens, 72 h; FTC-133 (DTC), antiproliferative, 3 days. In kind it is cell-based, human. On the technique in general: Tetrazolium assays rely on reduction of a dye to a coloured formazan, in cell work by metabolically active cells.
Another experiment addresses T5, IGF1R (Homo sapiens, UniProt P08069).
T5 construct: purchased Carna Biosciences, Inc. (Kobe, Japan)
Nature of the experiment: Cell free kinase inhibition assay. In kind it is biochemical.

The target in a further experiment is T6, NEK2 (Homo sapiens, UniProt P51955).
T6 construct: purchased Carna Biosciences, Inc. (Kobe, Japan)
Nature of the experiment: Cell free kinase inhibition assay. The format is biochemical.

A further experiment has as its system RO82-W-1 xenograft. Nature of the experiment: Human thyroid cancer xenograft model, tumor growth. In kind it is in vivo, nude mice. Here is the method: Nude mice (CAnN.Cg-Foxn1nu/CrlCrlj, female, 5-6 weeks old) were obtained from Charles River Laboratories Japan (Kanagawa, Japan). Mice were maintained under specific pathogen-free conditions and housed in barrier facilities on a 12 h light/dark cycle, with food and water ad libitum. All procedures using laboratory animals were done in accordance with all applicable institutional and government regulatory guidelines and policies and were performed in an animal facility accredited by the Center for Accreditation of Laboratory Animal Care of the Japan Health Sciences Foundation.
Tumor cells were cultured in appropriate culture mediums. Cells were harvested with 0.05% or 0.25% (w/v) trypsin/EDTA and suspended with 50% (v/v) BD Matrigel (BD Biosciences, San Jose, CA) in the mixture of culture mediums at a density of 5–10 × 10^7 cells/mL. Then, 0.1-0.2 mL of the cell suspension was inoculated subcutaneously into the right flank region of each mouse. […] The tumor size was measured in two dimensions by using a caliper, and the volume was calculated by using the formula: tumor volume (mm^3) = 1/2 length (mm) × [width (mm)]^2. The change in tumor volume in the treated group relative to that in the control group was calculated according to the following formula: ΔT/C = (ΔT/ΔC) × 100%, where ΔT and ΔC are the change in tumor volume (i.e., growth) for the treated and vehicle control group, respectively. The percentage of tumor growth inhibition (%TGI) was calculated from the formula: [(1 − ΔT/ΔC) × 100].
Supplementary Fig. S7 Comparison of antitumor activity with antiangiogenesis activity in human differentiated thyroid cancer RO82-W-1 xenografts in nude mice.
Nude mice bearing RO82-W-1 xenografts […]
when tumor volumes reached about 200 mm3 (day 1). The tumor volume was measured on day 22. Each group consisted of 6 mice. Data are shown as means ± SD. * P < 0.05 compared with vehicle-treated mice.
(b) The percentage of tumor growth inhibition (%TGI). Each group consisted of 6 mice. Antitumor activity was calculated as %TGI at day 22. Data are shown as means ± SD. * P < 0.05 compared […]
analyze the relationship between antitumor activity (%TGI) and antiangiogenesis activity (percentage of […]
sorafenib-treated groups were plotted on the X- and Y-axes, respectively. %TGI and %MVI was determined as described in Materials and Methods. Analysis of covariance (ANCOVA) for %TGI was examined by using %MVI as a covariate (P<0.05)
For orientation: In xenograft studies the graft and the host belong to different species.

For the next experiment, the target named is T7, JAK2 (Homo sapiens, UniProt O60674).
T7 construct: purchased Carna Biosciences, Inc. (Kobe, Japan)
As to the kind of experiment: Cell free kinase inhibition assay. In kind it is biochemical.

A further experiment concerns the target T8, PLK1 (Homo sapiens, UniProt P53350).
T8 construct: purchased Carna Biosciences, Inc. (Kobe, Japan)
Nature of the experiment: Cell free kinase inhibition assay. In kind it is biochemical.

For a further experiment, the target named is T9, FGFR4 (Homo sapiens, UniProt P22455).
T9 construct: purchased Carna Biosciences, Inc. (Kobe, Japan)
As to the kind of experiment: Cell free kinase inhibition assay. In kind it is biochemical.

Another experiment addresses T10, CSK (Homo sapiens, UniProt P41240).
T10 construct: purchased Carna Biosciences, Inc. (Kobe, Japan)
Nature of the experiment: Cell free kinase inhibition assay. In kind it is biochemical.

A further experiment has as its target T11, EPHA1 (Homo sapiens, UniProt P21709).
T11 construct: purchased Carna Biosciences, Inc. (Kobe, Japan)
As to the kind of experiment: Cell free kinase inhibition assay. In kind it is biochemical.

In the next experiment the target is T12, MLK1 (Homo sapiens, UniProt P80192).
T12 construct: purchased Carna Biosciences, Inc. (Kobe, Japan)
Nature of the experiment: Cell free kinase inhibition assay. In kind it is biochemical.

The subject of another experiment is 8505C cells. Nature of the experiment: Antiproliferation assay (WST-8). To be noted: Homo sapiens, 72 h; 8505C (ATC), antiproliferative, 3 days. The format is cell-based.
A further experiment has as its target T13, FGFR3(K650M) (Homo sapiens, UniProt P22607, K650M).
T13 construct: purchased Carna Biosciences, Inc. (Kobe, Japan)
As to the kind of experiment: Cell free kinase inhibition assay. In kind it is biochemical.

The next experiment relates to KHM-5M cells. Nature of the experiment: Antiproliferation assay (WST-8). The format is cell-based. The note with it: Homo sapiens, 72 h; KHM-5M (ATC), antiproliferative, 3 days.
The next experiment addresses T14, CDK6 (Homo sapiens, UniProt Q00534).
T14 construct: purchased Carna Biosciences, Inc. (Kobe, Japan)
Nature of the experiment: Cell free kinase inhibition assay. The format is biochemical.

The next experiment has as its target T15, FGFR3 (Homo sapiens, UniProt P22607).
T15 construct: purchased Carna Biosciences, Inc. (Kobe, Japan)
As to the kind of experiment: Cell free kinase inhibition assay. The format is biochemical.

For experiment [1], the system named is FGFR1 and its downstream effectors (FRS2, MEK, ERK). Nature of the experiment: Western blot of FGFR1 signaling in bFGF-stimulated RO82-W-1 cells. The note with it: 1 h treatment, then bFGF 20 ng/mL and heparin 10 min. Background: A western blot detects proteins with antibodies after separation by electrophoresis.
The next experiment deals with T16, FLT1/VEGFR1 (Homo sapiens, UniProt P17948).
T16 construct: purchased Carna Biosciences, Inc. (Kobe, Japan)
Nature of the experiment: Cell free kinase inhibition assay. The format is biochemical.

T1 sequence (P41279 whole entry): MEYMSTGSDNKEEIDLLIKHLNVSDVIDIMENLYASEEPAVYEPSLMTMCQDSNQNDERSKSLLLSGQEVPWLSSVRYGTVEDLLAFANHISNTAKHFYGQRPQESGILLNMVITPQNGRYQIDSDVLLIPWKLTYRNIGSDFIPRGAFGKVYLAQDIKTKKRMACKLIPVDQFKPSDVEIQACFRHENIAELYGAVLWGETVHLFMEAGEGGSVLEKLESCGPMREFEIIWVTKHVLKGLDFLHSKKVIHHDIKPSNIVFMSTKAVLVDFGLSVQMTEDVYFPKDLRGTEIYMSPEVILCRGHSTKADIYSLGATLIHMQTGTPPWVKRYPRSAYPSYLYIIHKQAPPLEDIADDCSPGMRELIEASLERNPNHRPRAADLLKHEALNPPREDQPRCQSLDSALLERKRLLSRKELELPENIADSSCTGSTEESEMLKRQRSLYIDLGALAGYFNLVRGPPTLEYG
T9 sequence (P22455 22-802): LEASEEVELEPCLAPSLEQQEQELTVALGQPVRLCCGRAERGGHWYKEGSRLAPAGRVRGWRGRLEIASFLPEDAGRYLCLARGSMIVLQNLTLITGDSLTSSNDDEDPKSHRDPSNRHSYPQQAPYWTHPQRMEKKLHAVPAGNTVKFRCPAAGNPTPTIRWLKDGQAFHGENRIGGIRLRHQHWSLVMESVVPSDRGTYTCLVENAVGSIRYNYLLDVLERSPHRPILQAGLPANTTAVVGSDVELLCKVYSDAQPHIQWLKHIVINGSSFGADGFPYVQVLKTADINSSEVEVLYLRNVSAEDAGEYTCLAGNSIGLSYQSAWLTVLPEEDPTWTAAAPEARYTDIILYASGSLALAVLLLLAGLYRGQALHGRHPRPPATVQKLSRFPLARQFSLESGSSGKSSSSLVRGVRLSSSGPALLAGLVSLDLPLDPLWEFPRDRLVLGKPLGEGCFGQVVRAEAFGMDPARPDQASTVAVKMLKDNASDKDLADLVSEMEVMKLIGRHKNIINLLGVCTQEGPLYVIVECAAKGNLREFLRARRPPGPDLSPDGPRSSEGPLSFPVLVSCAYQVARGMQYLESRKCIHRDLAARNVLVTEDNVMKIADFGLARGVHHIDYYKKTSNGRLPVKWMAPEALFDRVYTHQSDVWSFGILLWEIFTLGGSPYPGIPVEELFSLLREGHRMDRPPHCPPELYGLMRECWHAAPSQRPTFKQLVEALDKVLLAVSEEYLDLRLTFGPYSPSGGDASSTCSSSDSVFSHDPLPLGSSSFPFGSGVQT
T2 sequence (Q13882 whole entry): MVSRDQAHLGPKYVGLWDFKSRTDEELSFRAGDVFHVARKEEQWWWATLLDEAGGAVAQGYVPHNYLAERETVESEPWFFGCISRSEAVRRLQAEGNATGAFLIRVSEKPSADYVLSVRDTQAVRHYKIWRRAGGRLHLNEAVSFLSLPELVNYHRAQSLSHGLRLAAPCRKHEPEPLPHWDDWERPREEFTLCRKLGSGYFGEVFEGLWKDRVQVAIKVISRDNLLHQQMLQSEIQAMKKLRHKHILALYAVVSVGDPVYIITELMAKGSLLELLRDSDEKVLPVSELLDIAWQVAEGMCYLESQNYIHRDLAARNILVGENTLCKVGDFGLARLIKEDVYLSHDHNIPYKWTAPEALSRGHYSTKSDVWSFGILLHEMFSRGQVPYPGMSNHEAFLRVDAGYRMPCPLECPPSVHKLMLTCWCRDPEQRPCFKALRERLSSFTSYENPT
T16 sequence (P17948 27-1338): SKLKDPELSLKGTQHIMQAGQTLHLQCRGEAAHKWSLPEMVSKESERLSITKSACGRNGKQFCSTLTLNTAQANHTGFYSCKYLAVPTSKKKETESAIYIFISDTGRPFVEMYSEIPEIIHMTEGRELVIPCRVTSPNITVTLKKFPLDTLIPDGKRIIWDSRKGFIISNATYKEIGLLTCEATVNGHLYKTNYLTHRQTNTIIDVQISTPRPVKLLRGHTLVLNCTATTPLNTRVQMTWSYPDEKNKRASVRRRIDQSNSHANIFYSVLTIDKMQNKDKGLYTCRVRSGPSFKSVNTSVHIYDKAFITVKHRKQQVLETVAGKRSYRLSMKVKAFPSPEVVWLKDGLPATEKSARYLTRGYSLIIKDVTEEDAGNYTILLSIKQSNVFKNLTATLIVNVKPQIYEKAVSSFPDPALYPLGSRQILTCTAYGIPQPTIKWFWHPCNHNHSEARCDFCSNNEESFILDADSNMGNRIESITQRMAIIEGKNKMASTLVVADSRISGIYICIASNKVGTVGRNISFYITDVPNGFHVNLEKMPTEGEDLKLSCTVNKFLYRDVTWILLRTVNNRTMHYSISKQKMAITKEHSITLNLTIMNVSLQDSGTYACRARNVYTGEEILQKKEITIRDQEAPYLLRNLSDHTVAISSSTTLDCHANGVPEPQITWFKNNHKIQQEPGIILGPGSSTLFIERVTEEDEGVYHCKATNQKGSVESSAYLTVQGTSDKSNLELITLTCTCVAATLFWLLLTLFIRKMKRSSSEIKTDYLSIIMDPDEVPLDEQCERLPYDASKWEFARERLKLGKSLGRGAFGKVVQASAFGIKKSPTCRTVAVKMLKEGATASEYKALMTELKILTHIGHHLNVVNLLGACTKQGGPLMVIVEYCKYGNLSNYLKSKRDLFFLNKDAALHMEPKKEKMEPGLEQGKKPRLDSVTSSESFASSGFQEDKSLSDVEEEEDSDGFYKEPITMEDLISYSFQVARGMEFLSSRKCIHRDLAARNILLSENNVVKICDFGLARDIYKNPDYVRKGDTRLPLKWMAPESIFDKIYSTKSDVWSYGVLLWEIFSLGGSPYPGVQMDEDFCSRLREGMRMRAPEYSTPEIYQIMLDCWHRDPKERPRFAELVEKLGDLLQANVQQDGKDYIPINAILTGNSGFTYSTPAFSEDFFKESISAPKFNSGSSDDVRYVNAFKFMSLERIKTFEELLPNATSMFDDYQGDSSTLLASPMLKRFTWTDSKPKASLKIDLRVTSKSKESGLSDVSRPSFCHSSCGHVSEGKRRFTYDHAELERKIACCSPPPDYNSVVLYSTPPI
T11 sequence (P21709 26-976): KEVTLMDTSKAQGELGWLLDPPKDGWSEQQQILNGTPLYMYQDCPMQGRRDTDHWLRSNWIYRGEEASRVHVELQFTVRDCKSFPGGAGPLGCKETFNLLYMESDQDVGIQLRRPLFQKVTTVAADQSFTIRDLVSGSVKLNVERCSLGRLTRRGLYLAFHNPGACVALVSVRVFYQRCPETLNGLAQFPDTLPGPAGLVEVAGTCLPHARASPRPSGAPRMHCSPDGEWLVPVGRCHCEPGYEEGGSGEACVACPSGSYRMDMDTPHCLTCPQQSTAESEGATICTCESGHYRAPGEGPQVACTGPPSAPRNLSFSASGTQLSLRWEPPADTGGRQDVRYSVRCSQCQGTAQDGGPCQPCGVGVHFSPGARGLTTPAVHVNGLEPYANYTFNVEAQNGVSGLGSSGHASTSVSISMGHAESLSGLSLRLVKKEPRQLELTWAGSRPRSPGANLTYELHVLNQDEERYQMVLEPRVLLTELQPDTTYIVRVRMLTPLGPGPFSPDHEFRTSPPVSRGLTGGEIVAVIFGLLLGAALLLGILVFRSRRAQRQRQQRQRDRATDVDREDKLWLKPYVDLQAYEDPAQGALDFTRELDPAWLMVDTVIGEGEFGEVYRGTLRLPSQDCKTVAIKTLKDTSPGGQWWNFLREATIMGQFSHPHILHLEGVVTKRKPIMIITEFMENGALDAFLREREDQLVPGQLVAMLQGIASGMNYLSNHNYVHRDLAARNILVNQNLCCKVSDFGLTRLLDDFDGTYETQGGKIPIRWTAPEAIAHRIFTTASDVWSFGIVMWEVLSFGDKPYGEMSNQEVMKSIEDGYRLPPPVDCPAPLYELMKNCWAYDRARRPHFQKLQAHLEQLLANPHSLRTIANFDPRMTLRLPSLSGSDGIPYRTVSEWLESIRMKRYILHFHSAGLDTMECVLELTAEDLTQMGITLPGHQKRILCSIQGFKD
T8 sequence (P53350 whole entry): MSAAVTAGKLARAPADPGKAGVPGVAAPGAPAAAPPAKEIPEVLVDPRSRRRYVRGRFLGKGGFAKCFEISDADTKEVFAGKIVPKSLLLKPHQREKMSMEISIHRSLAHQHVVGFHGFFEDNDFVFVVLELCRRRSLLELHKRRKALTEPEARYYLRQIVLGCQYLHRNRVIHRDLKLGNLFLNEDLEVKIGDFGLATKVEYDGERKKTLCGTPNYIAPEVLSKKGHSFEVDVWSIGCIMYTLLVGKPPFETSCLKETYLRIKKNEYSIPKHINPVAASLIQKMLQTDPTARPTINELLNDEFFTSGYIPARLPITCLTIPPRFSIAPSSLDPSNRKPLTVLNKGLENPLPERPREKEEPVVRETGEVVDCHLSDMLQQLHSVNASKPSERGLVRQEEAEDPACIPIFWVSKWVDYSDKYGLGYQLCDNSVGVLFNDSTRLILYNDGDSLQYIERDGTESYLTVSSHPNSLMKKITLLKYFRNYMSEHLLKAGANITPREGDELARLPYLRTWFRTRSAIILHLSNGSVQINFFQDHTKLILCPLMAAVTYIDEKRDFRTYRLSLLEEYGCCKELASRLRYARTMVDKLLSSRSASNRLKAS
T10 sequence (P41240 whole entry): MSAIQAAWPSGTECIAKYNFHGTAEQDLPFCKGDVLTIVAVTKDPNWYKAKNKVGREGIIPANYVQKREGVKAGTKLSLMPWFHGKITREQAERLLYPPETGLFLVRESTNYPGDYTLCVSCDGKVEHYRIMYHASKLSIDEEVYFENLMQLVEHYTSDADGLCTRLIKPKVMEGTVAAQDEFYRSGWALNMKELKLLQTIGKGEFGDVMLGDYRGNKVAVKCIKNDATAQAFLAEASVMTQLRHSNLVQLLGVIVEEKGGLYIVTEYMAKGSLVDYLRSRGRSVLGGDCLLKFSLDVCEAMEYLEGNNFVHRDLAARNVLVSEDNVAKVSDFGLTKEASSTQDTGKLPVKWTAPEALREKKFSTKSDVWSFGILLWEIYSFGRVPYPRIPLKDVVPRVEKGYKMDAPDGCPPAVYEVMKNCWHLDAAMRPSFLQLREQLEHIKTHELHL

One may read the IC50 as the point on the concentration scale where inhibition reaches its midpoint. A low value points to greater potency. In the case of `COc1cc2nccc(Oc3ccc(NC(=O)NC4CC4)c(Cl)c3)c2cc1C(N)=O` [Lenvatinib, Lenvatinib mesilate], the IC50 against COT was greater than 10 µM; at BRK, 0.17 µM; on PDGFRα(V561D), 0.025 µM; against IKKb, greater than 10 µM; with FTC-133 cells, 24 µM; on IGF1R, greater than 10 µM. The IC50 against NEK2 was greater than 10 µM; at JAK2, greater than 10 µM; against PLK1 it was greater than 10 µM; on FGFR4, 0.043 µM; at CSK, 2.6 µM; on EPHA1, 5.1 µM. Also, the IC50 against MLK1 is greater than 10 µM; in the experiment with 8505C cells it was 26 µM; against FGFR3(K650M), 0.25 µM; with KHM-5M cells, 28 µM; against CDK6, greater than 10 µM; at FGFR3, 0.052 µM. The same molecule came in with an IC50 against FLT1/VEGFR1 of 0.0047 µM. In addition, in the experiment with RO82-W-1 xenograft (RO82-W-1 xenograft, 1, 3, and 10 mg/kg oral once daily 14 days), the antitumor activity result was “significant antitumor activity”. Moreover, the “antitumor activity compared with sorafenib (300 mg/kg)” value in the experiment with RO82-W-1 xenograft (RO82-W-1 xenografts, 100 mg/kg oral once daily 21 days, %TGI day 22) is on record as “significant potent antitumor activity”. Besides, the “antitumor activity (%TGI) normalized for angiogenesis inhibition (%MVI), versus sorafenib” value with RO82-W-1 xenograft (RO82-W-1 xenografts, ANCOVA) is “stronger antitumor activity”. The “phosphorylation of FGFR1, FRS2, MEK, and ERK” value in experiment [1] was “inhibited the phosphorylation of FGFR1 and of FRS2, MEK, and ERK, in a concentration-dependent manner”.

The values are drawn from article PMC4177084 (Journal of Thyroid Research, 2014).
